Data: patent US20220211603A1, “Oral Compositions And Methods Of Use” (3M INNOVATIVE PROPERTIES COMPANY, priority 2019, published 2022)

Tested on: Streptococcus mutans (ATCC 25175) biofilm
Experiment: MBEC Biofilm Disruption Assay
Format: cell-based
Settings: glucosamine HCl combined with MEGA-9 in water
Text: In some embodiments, disclosed compositions can prevent, inhibit, disrupt the formation or maintenance of a biofilm in an area contacted with the composition. The area contacted can be in vivo or in vitro. In some embodiments, a composition can prevent, inhibit, disrupt the formation or maintenance of a biofilm in a mouth of a user where the composition was applied to the mouth, for example via spraying the composition into the mouth when compared to a mouth without the composition applied thereto. […] Preventing, inhibiting, disrupting, or some combination thereof the formation or maintenance of biofilms can be measured using a modified version of the MBEC assay (described in ASTM […]-12), which measures disruption of Streptococcus mutans biofilms grown on special pegs in a microtiter plate. […] The biofilm remaining on each peg following treatment is quantified by measuring the amount of fluorescently labeled bacteria that eluted from the pegs at the end of the treatment cycles (see example). […] Decreasing plaque buildup can be measured by a variety of methods in vivo including for example plaque scoring, dyeing of plaque, etc. […] Control wells for fluorescence readings were also filled with 150 microliter of phosphate-buffered saline (PBS) or non-bacteria-containing media consisting of BHI with 1% sucrose and 1 micromolar ALEXA FLUOR 488 dextran. […]

`Cl.N[C@H]1C(O)O[C@H](CO)[C@@H](O)[C@@H]1O` (stereo partly shown) [Glucosamine HCl] was tested, and the “effect on biofilm disruption of MEGA-9 (in words)” value was “enhanced the biofilm disruption effect of MEGA-9”.
